Data reported in the supplement of paper PMC10307832.

Legend:
Test in all cases: relative viability (nuclei count vs DMSO), 5 days (fraction); higher = more cells survive
[1] = tested on: NCI-H1755
Outline: (§1)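 Relative viability was taken as the ratio of nuclei in treated wells to nuclei in vehicle wells. Lung cancer cell lines in 1536-well plates received compounds by pin tool one day after seeding, either one drug alone or a fixed anchor-drug dose plus five library-drug doses (not always all listed) in √10 steps. Nuclei were counted on 4× images after 5 days of treatment, and values are medians of duplicate plates.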

[2] = tested on: LC-2-ad
Outline: as §1

[3] = tested on: NCI-H2023
Outline: as §1

[4] = tested on: NCI-H1395
Outline: as §1

[5] = tested on: NCI-H650
Outline: as §1

[6] = tested on: NCI-H3122
Outline: as §1

[7] = tested on: BEN
Outline: as §1

[8] = tested on: NCI-H1563
Outline: as §1

[9] = tested on: NCI-H2170
Outline: as §1

[10] = tested on: HCC-15
Outline: as §1

[11] = tested on: SW 900
Outline: as §1

[12] = tested on: SW 1573
Outline: as §1

[13] = tested on: NCI-H1915
Outline: as §1

[14] = tested on: EMC-BAC-2
Outline: as §1

[15] = tested on: LU99A
Outline: as §1

[16] = tested on: NCI-H1734
Outline: as §1

[17] = tested on: NCI-H358
Outline: as §1

[18] = tested on: HCC-44
Outline: as §1

[19] = tested on: NCI-H2126
Outline: as §1

[20] = tested on: NCI-H1437
Outline: as §1

[21] = tested on: HOP-62
Outline: as §1

## CCNC(=O)c1noc(-c2cc(C(C)C)c(O)cc2O)c1-c1ccc(CN2CCOCC2)cc1 [Luminespib] + Nc1nc2[nH]cc(CCc3ccc(C(=O)N[C@@H](CCC(=O)O)C(=O)O)cc3)c2c(=O)[nH]1 [Pemetrexed] (partner 0.2 µM)
[1]; first compound 0.002 µM
  relative viability: 0.415
[1]; first compound 0.006325 µM
  relative viability: 0.424
[1]; first compound 0.02 µM
  relative viability: 0.415
[1]; first compound 0.06325 µM
  relative viability: 0.264
[1]; first compound 0.2 µM
  relative viability: 0.2
[2]; first compound 0.002 µM
  relative viability: 0.251
[2]; first compound 0.006325 µM
  relative viability: 0.298
[2]; first compound 0.02 µM
  relative viability: 0.26
[2]; first compound 0.06325 µM
  relative viability: 0.213
[2]; first compound 0.2 µM
  relative viability: 0.205
[3]; first compound 0.002 µM
  relative viability: 0.28
[3]; first compound 0.006325 µM
  relative viability: 0.244
[3]; first compound 0.02 µM
  relative viability: 0.0961
[3]; first compound 0.06325 µM
  relative viability: 0.071
[3]; first compound 0.2 µM
  relative viability: 0.0739
[4]; first compound 0.002 µM
  relative viability: 0.875
[4]; first compound 0.006325 µM
  relative viability: 0.812
[4]; first compound 0.02 µM
  relative viability: 0.699
[4]; first compound 0.06325 µM
  relative viability: 0.299
[4]; first compound 0.2 µM
  relative viability: 0.353
[5]; first compound 0.002 µM
  relative viability: 0.925
[5]; first compound 0.006325 µM
  relative viability: 0.983
[5]; first compound 0.02 µM
  relative viability: 0.625
[5]; first compound 0.06325 µM
  relative viability: 0.257
[5]; first compound 0.2 µM
  relative viability: 0.113
[6]; first compound 0.002 µM
  relative viability: 0.203
[6]; first compound 0.006325 µM
  relative viability: 0.182
[6]; first compound 0.02 µM
  relative viability: 0.184
[6]; first compound 0.06325 µM
  relative viability: 0.135
[6]; first compound 0.2 µM
  relative viability: 0.111
[7]; first compound 0.002 µM
  relative viability: 0.805
[7]; first compound 0.006325 µM
  relative viability: 0.584
[7]; first compound 0.02 µM
  relative viability: 0.463
[7]; first compound 0.06325 µM
  relative viability: 0.5
[7]; first compound 0.2 µM
  relative viability: 0.252
[8]; first compound 0.002 µM
  relative viability: 0.808
[8]; first compound 0.006325 µM
  relative viability: 0.599
[8]; first compound 0.02 µM
  relative viability: 0.668
[8]; first compound 0.06325 µM
  relative viability: 0.402
[8]; first compound 0.2 µM
  relative viability: 0.41
[9]; first compound 0.002 µM
  relative viability: 0.291
[9]; first compound 0.006325 µM
  relative viability: 0.267
[9]; first compound 0.06325 µM
  relative viability: 0.219
[9]; first compound 0.2 µM
  relative viability: 0.141
[10]; first compound 0.002 µM
  relative viability: 0.219
[10]; first compound 0.006325 µM
  relative viability: 0.236
[10]; first compound 0.02 µM
  relative viability: 0.214
[10]; first compound 0.06325 µM
  relative viability: 0.193
[10]; first compound 0.2 µM
  relative viability: 0.137
[11]; first compound 0.002 µM
  relative viability: 0.492
[11]; first compound 0.006325 µM
  relative viability: 0.512
[11]; first compound 0.02 µM
  relative viability: 0.427
[11]; first compound 0.06325 µM
  relative viability: 0.133
[11]; first compound 0.2 µM
  relative viability: 0.146
[12]; first compound 0.002 µM
  relative viability: 0.818
[12]; first compound 0.006325 µM
  relative viability: 0.898
[12]; first compound 0.02 µM
  relative viability: 0.189
[12]; first compound 0.06325 µM
  relative viability: 0.0968
[12]; first compound 0.2 µM
  relative viability: 0.0903
[13]; first compound 0.002 µM
  relative viability: 0.479
[13]; first compound 0.006325 µM
  relative viability: 0.482
[13]; first compound 0.02 µM
  relative viability: 0.442
[13]; first compound 0.06325 µM
  relative viability: 0.312
[13]; first compound 0.2 µM
  relative viability: 0.0621
[14]; first compound 0.002 µM
  relative viability: 0.467
[14]; first compound 0.006325 µM
  relative viability: 0.287
[14]; first compound 0.02 µM
  relative viability: 0.573
[14]; first compound 0.06325 µM
  relative viability: 0.383
[14]; first compound 0.2 µM
  relative viability: 0.444
[15]; first compound 0.002 µM
  relative viability: 0.192
[15]; first compound 0.006325 µM
  relative viability: 0.198
[15]; first compound 0.02 µM
  relative viability: 0.177
[15]; first compound 0.06325 µM
  relative viability: 0.168
[15]; first compound 0.2 µM
  relative viability: 0.127
[16]; first compound 0.002 µM
  relative viability: 0.475
[16]; first compound 0.006325 µM
  relative viability: 0.406
[16]; first compound 0.02 µM
  relative viability: 0.428
[16]; first compound 0.06325 µM
  relative viability: 0.159
[16]; first compound 0.2 µM
  relative viability: 0.143
[17]; first compound 0.002 µM
  relative viability: 0.186
[17]; first compound 0.006325 µM
  relative viability: 0.16
[17]; first compound 0.02 µM
  relative viability: 0.167
[17]; first compound 0.06325 µM
  relative viability: 0.147
[17]; first compound 0.2 µM
  relative viability: 0.078
[18]; first compound 0.002 µM
  relative viability: 0.613
[18]; first compound 0.006325 µM
  relative viability: 0.611
[18]; first compound 0.02 µM
  relative viability: 0.773
[18]; first compound 0.06325 µM
  relative viability: 0.659
[18]; first compound 0.2 µM
  relative viability: 0.657
[19]; first compound 0.002 µM
  relative viability: 0.705
[19]; first compound 0.006325 µM
  relative viability: 0.626
[19]; first compound 0.06325 µM
  relative viability: 0.479
[19]; first compound 0.2 µM
  relative viability: 0.181
[20]; first compound 0.002 µM
  relative viability: 0.305
[20]; first compound 0.006325 µM
  relative viability: 0.305
[20]; first compound 0.02 µM
  relative viability: 0.347
[20]; first compound 0.06325 µM
  relative viability: 0.266
[20]; first compound 0.2 µM
  relative viability: 0.156
[21]; first compound 0.002 µM
  relative viability: 0.314
[21]; first compound 0.006325 µM
  relative viability: 0.4
[21]; first compound 0.02 µM
  relative viability: 0.34
[21]; first compound 0.06325 µM
  relative viability: 0.156
[21]; first compound 0.2 µM
  relative viability: 0.125
